Results reported in patent US20220315598A1, “Oxygen-containing Heterocyclic Compound, Preparation Method Therefor and Use Thereof” (SHANGHAI YINGLI PHARMACEUTICAL CO., LTD, priority 2019, published 2022).
Read-outs that look alike come from different tables or passages of the source.

Legend:
[1] = tested on: MIA PaCa-2 cells; experiment: Proliferation inhibition on MIA PaCa-2 cell line by CTG method; assay type: cell-based, human; conditions: for IC50: Homo sapiens, MIA PaCa-2, Table 2, CellTiter Glo, 120 hours
Method: Experiments for Testing Proliferation Inhibition of Compounds on MIA PaCa-2 Cell Lines by CTG Method
40 μL of MIA PaCa-2 cell suspension was added to each well (except for peripheral wells) of 384-well plates. The plates were placed in a carbon dioxide incubator overnight. […] The plates were incubated in a carbon dioxide incubator for 120 hours. To the 384-well plates were added 25 μL of CellTiter Glo reagents, and the mixture was shaken in the dark for 10 minutes and incubated for 10 minutes. The plates were read on the EnVision plate reader. XLFit was used to draw inhibition rate curves of efficacy and IC50 values were calculated. […] “---” represents not determined.
MIA PaCa-2 was a human pancreatic cancer cell with KRAS G12C mutation. The activity of compounds can be evaluated by detecting the proliferation inhibitory activity of these compounds on such cell line.

[2] = tested on: NCI-H358 cells; experiment: Proliferation inhibition on NCI-H358 cell line by CTG method; assay type: cell-based, human; conditions: for IC50: CellTiter Glo, 120 hours
Method: (§1) NCI-H358 was a human non-small cell lung cancer cell with KRAS G12C mutation; A549 was a human non-small cell lung cancer cell with KRAS G12V mutation: and A375 was a wild-type malignant melanoma cell. The inhibitory effects of compounds on different mutations were evaluated by testing the proliferation inhibitory activity of these compounds on the three cell lines.
(§2) 40 μL of cell suspension to be tested was added to each well (except for peripheral wells) of three 384-well plates (plate 1: NCI-H358 cell suspension: plate 2: A549 cell suspension: plate 3: A375 cell suspension). The plates were placed in a carbon dioxide incubator overnight. […] The plates were incubated in a carbon dioxide incubator for 120 hours. To the 384-well plates were added 25 μL of CellTiter Glo reagents, and the mixture was shaken in the dark for 10 minutes and incubated for 10 minutes. The plates were read on the EnVision plate reader. XLFit was used to draw inhibition rate curves of efficacy and IC50 values were calculated. […] “---” represents not determined.
Experiments for Testing Proliferation Inhibition of Compounds on NCI-H358 Cell Lines by CTG Method

[3] = tested on: A549 cells; experiment: Proliferation inhibition on A549 cell line by CTG method; assay type: cell-based, human
Method: as §1, §2

[4] = tested on: A375 cells; experiment: Proliferation inhibition on A375 cell line by CTG method; assay type: cell-based; conditions: Table 1, CellTiter Glo, 120 hours, class symbol
Method: as §1, §2

[5] = Homo sapiens, NCI-H358, 120 h, Table 1, number, read-out: IC50 (μM): (H358)
[6] = Homo sapiens, NCI-H358, 120 h, Table 2, number, read-out: IC50 (nM) H358
[7] = Homo sapiens, A549, 120 h, Table 1, CellTiter Glo, class symbol
[8] = Homo sapiens, NCI-H358, 120 h, Table 1, class symbol, read-out: IC50 (μM): (H358)
[9] = Table 1, CellTiter Glo, 120 hours, class symbol
[10] = Table 1, class symbol, read-out: IC50 (μM): (H358)
[11] = Homo sapiens, NCI-H358, 120 h, Table 2, class symbol, read-out: IC50 (nM) H358

IC50 [3, 7] [µM] | IC50 [2, 8] [µM] | IC50 ([4]; Homo sapiens, A-375) [µM] | Compound | further results
> 1 | < 1 | > 1 | C=CC(=O)N1CCN(c2nc(OC[C@@H]3CCCN3C)nc3c2COC(c2ccccc2C(F)(F)F)C3)C[C@@H]1CC#N (stereo partly shown) [Compound 2-2] | IC50 ([1]; number): 1.9 nM; proliferation inhibitory activity, comparison in words ([1]; text on Table 2 (H358 and MIA PaCa-2 cells)): significantly better than that of the corresponding comparative compounds 1′ and 3′; IC50 [2, 5]: 0.0025 µM; IC50 [2, 6]: 0.0025 µM; proliferation inhibitory activity on NCI-H358 cells, in words ([2]; Table 1): significantly better than that of the corresponding comparative compound 1′
 |  | > 1 | C=CC(=O)N1CCN(c2nc(OC[C@@H]3CCCN3C)nc3c2COC(c2cccc4ccccc24)C3)C[C@@H]1CC#N (stereo partly shown) [Compound 3-1] | 
 |  | > 1 | C=CC(=O)N1CCN(c2nc(OC[C@@H]3CCCN3C)nc3c2COC(c2cccc4cccc(C)c24)C3)C[C@@H]1CC#N (stereo partly shown) [Compound 4-1] | IC50 [2, 10]: < 1 µM
> 1 | < 1 |  | C=CC(=O)N1CCN(c2nc(OCCN(CC)CC)nc3c2COC(c2cccc4cccc(C)c24)C3)C[C@@H]1CC#N (stereo partly shown) [Compound 6-2] | 
> 1 | < 1 | > 1 | C=CC(=O)N1CCN(c2nc(OC[C@@H]3CCCN3C)nc3c2COC(c2cccc4cccc(C)c24)C3)[C@@H](C)C1 (stereo partly shown) [Compound 11-2] | 
> 1 | < 1 | > 1 | C=C(F)C(=O)N1CCN(c2nc(OC[C@@H]3CCCN3C)nc3c2COC(c2cccc4cccc(Cl)c24)C3)C[C@@H]1CC#N (stereo partly shown) [Compound 12-2] | 
> 1 | < 1 | > 1 | C=C(F)C(=O)N1CCN(c2nc(OC[C@H]3CCCN3C)nc3c2COC(c2ccccc2C(F)(F)F)C3)C[C@@H]1CC#N (stereo partly shown) [Compound 19-2] | 
> 1 | < 1 | > 1 | C=C(F)C(=O)N1CCN(c2nc(OC[C@H]3CCCN3C)nc3c2COC(c2cccc4cccc(Cl)c24)C3)C[C@@H]1CC#N (stereo partly shown) [Compound 32-2] | 

More lines, now with the values behind:

Compound | IC50 [3, 7] [µM] | IC50 [2, 8] [µM] | IC50 ([4]; Homo sapiens, A-375) [µM] | further results
C=CC(=O)N1CCN(c2nc(OC[C@@H]3CCCN3C)nc3c2CCN(c2ccccc2C(F)(F)F)C3)C[C@@H]1CC#N [Comparative compound 1′, reference compound] |  |  |  | IC50 ([1]; number): 3.9 nM; IC50 [2, 5]: 0.0073 µM; IC50 [2, 6]: 0.0073 µM
C=CC(=O)N1CCN(c2nc(OC[C@@H]3CCCN3C)nc3c2CC[C@H](c2ccccc2C(F)(F)F)C3)C[C@@H]1CC#N [Comparative compound 3′, reference compound] |  |  |  | IC50 ([1]; number): 8.3 nM
C=CC(=O)N1CCN(c2nc(OC[C@@H]3CCCN3C)nc3c2COCC3)C[C@@H]1CC#N [Compound 1] | > 1 | > 1 |  | IC50 ([3]; Homo sapiens, A549, 120 h, Table 1, CellTiter Glo, number): > 10 µM; IC50 [2, 5]: > 10 µM
C=CC(=O)N1CCN(c2nc(OC[C@@H]3CCCN3C)nc3c2COC(c2ccccc2C(F)(F)F)C3)C[C@@H]1CC#N (stereo partly shown) [Compound 2-1] |  |  |  | IC50 [3, 9]: > 1 µM; IC50 [4]: > 1 µM; IC50 [2, 10]: < 1 µM
C=CC(=O)N1CCN(c2nc(OC[C@@H]3CCCN3C)nc3c2COC(c2cccc4ccccc24)C3)C[C@@H]1CC#N (stereo partly shown) [Compound 3-2] |  |  |  | IC50 [4]: > 1 µM
C=CC(=O)N1CCN(c2nc(OC[C@@H]3CCCN3C)nc3c2COC(c2cccc4ccccc24)C3)C[C@@H]1CC#N (stereo partly shown) [Compound 3] | > 1 | < 1 |  | 
C=CC(=O)N1CCN(c2nc(OC[C@@H]3CCCN3C)nc3c2COC(c2cccc4cccc(C)c24)C3)C[C@@H]1CC#N (stereo partly shown) [Compound 4-2] |  |  |  | IC50 [3, 9]: > 1 µM; IC50 [4]: > 1 µM; IC50 [2, 10]: < 1 µM
C=CC(=O)N1CCN(c2nc(OC[C@@H]3CCCN3C)nc3c2COC(c2cccc4cccc(C)c24)C3)C[C@@H]1CC#N (stereo partly shown) [Compound 4] | > 1 | < 1 |  | 
C=CC(=O)N1CCN(c2nc(OCCN(C)C)nc3c2COC(c2cccc4cccc(C)c24)C3)C[C@@H]1CC#N (stereo partly shown) [Compound 5] | > 1 | < 1 |  | 
C=CC(=O)N1CCN(c2nc(OCCCN(C)C)nc3c2COC(c2cccc4cccc(C)c24)C3)C[C@@H]1CC#N (stereo partly shown) [Compound 7] | > 1 | < 1 |  | 
C=CC(=O)N1CCN(c2nc(OC[C@@H]3CCCN3C)nc3c2COC(c2cccc4cccc(C)c24)C3)CC1 (stereo partly shown) [Compound 8] | > 1 | < 1 |  | 
C=CC(=O)N1CCN(c2nc(N(C)CCN(C)C)nc3c2COC(c2cccc4cccc(C)c24)C3)C[C@@H]1CC#N (stereo partly shown) [Compound 9] | > 1 | < 1 |  | 
C/C=C/C(=O)N1CCN(c2nc(OC[C@@H]3CCCN3C)nc3c2COC(c2cccc4cccc(C)c24)C3)C[C@@H]1CC#N (stereo partly shown) [Compound 10] | > 1 | < 1 | > 1 | 
C=C(F)C(=O)N1CCN(c2nc(OC[C@@H]3CCCN3C)nc3c2COC(c2cccc4cccc(C)c24)C3)C[C@@H]1CC#N (stereo partly shown) [Compound 13] | > 1 | < 1 | > 1 | 
C=CC(=O)N1CCN(c2nc(OC(C)CN(C)C)nc3c2COC(c2cccc4cccc(C)c24)C3)C[C@@H]1CC#N (stereo partly shown) [Compound 14] | > 1 | < 1 | > 1 | 
C=CC(=O)N1CCN(c2nc(OC[C@@H]3CC(F)(F)CN3C)nc3c2COC(c2cccc4cccc(C)c24)C3)C[C@@H]1CC#N (stereo partly shown) [Compound 15] | > 1 | < 1 | > 1 | 
C=CC(=O)N1CCN(c2nc(OC[C@H]3CCCN3C)nc3c2COC(c2cccc4cccc(C)c24)C3)C[C@@H]1CC#N (stereo partly shown) [Compound 16] | > 1 | < 1 | > 1 | 
Cc1cccc2cccc(C3Cc4nc(OC[C@@H]5CCCN5C)nc(N5CCN(C(=O)/C=C/CN(C)C)[C@@H](CC#N)C5)c4CO3)c12 (stereo partly shown) [Compound 17] | > 1 | < 1 | > 1 | 
CC#CC(=O)N1CCN(c2nc(OC[C@@H]3CCCN3C)nc3c2COC(c2cccc4cccc(C)c24)C3)C[C@@H]1CC#N (stereo partly shown) [Compound 24] | > 1 | < 1 | > 1 | 
C=CC(=O)N1CCN(c2nc(OC[C@@H]3CCCN3C)nc3c2COC(c2cccc4cccc(Cl)c24)C3)C[C@@H]1CC#N (stereo partly shown) [Compound 25] | > 1 | < 1 | > 1 | 
C=C(F)C(=O)N1CCN(c2nc(OC[C@@H]3CCCN3C)nc3c2COC(c2ccccc2Cl)C3)C[C@@H]1CC#N (stereo partly shown) [Compound 30] | > 1 | < 1 | > 1 | 
Cc1cccc2cccc(C3Cc4nc(OC[C@@H]5CCCN5C)nc(N5CCN(C(=O)/C=C/CN6CCOCC6)[C@@H](CC#N)C5)c4CO3)c12 (stereo partly shown) [Compound 31] | > 1 | < 1 | > 1 | 
CN(C)C/C=C/C(=O)N1CCN(c2nc(OC[C@@H]3CCCN3C)nc3c2CO[C@H](c2cccc4cccc(Cl)c24)C3)C[C@@H]1CC#N [Compound 36] |  |  |  | IC50 [2, 11]: < 1 µM
C=CC(=O)N1CCN(c2nc(OC[C@@H]3CCCN3C)nc3c2COC(c2cncc4ccccc24)C3)C[C@@H]1CC#N (stereo partly shown) [Compound 40] |  |  |  | IC50 ([1]; class symbol): < 1000 nM
CN1CCC[C@H]1COc1nc2c(c(N3CCN(C#N)[C@@H](CC#N)C3)n1)CO[C@H](c1cccc3cccc(Cl)c13)C2 [Compound 41] |  |  |  | IC50 [2, 11]: < 1 µM
CC(=O)/C=C/C(=O)N1CCN(c2nc(OC[C@@H]3CCCN3C)nc3c2CO[C@H](c2cccc4cccc(Cl)c24)C3)C[C@@H]1CC#N [Compound 44] |  |  |  | IC50 [2, 11]: < 1 µM
C=CC(=O)N1CCN(c2nc(NCCN(C)C)nc3c2CO[C@H](c2cccc4cccc(Cl)c24)C3)C[C@@H]1CC#N [Compound 45] |  |  |  | IC50 [2, 11]: < 1 µM
C=CC(=O)N1CCN(c2nc(SCCN(C)C)nc3c2CO[C@H](c2cccc4cccc(Cl)c24)C3)C[C@@H]1CC#N [Compound 46] |  |  |  | IC50 [2, 11]: < 1 µM
